“And” between values parts separate entries of the source, which are not always exact repeats. Equal values may be shown once. Where a SMILES comes first, the peptide text is derived from it. [ ]: non-standard residue; d: D form. Hyp = O=C(O)[C@@H]1C[C@@H](O)CN1
Tests used:
[1] = test system: CCL2/JE/MCP-1; experiment: Example 9 Luminex, LPS hPBMCs: CCL2/JE/MCP-1; assay type: cell-based, human
Protocol: (§1) Treatment Human PBMCs were pretreated with YY-101, YDE-011 and YDE-043 or reference compound; Xiidra® at various concentration (ranging from 1 nM to 100 uM) for 2 h before stimulation. An equal volume of 0.5% DMSO was used as a vehicle control. Then, the cells were treated with LPS at 5 ug/ml. The supernatants from treated cells were harvested at 24 h and placed in a 96 well for Luminex cytokine & chemokine profiling using a Luminex 200 multiplex assay (Luminex; R&D system, USA).
(§2) The main study arm with triplicate wells per group in a 24-well plate: • 1. Blank • 2. PBMC: 0.5% DMSO • 3. PBMC+LPS (5 ug/ml) • 4. PBMC+YY-101 100 uM • 5. PBMC+YY-101 10 uM • 6. PBMC+YY-101 1 uM • 7. PBMC+YY-101 0.1 uM • 8. PBMC+YY-101 0.01 uM • 9. PBMC+LPS (5 ug/ml)+Xiidra®100 uM • 10. PBMC+LPS (5 ug/ml)+Xiidra® 10 uM • 11. PBMC+LPS (5 ug/ml)+Xiidra® 1 uM • 12. PBMC+LPS (5 ug/ml)+Xiidra®0.1 uM • 13. PBMC+LPS (5 ug/ml)+Xiidra®0.01 uM • 14. PBMC+LPS (5 ug/ml)+Xiidra®0.001 uM • 15. PBMC+LPS (5 ug/ml)+YY-101 100 uM • 16. PBMC+LPS (5 ug/ml)+YY-101 10 uM • 17. PBMC+LPS (5 ug/ml)+YY-101 1 uM • 18. PBMC+LPS (5 ug/ml)+YY-101 0.1 uM • 19. PBMC+LPS (5 ug/ml)+YY-101 0.01 uM • 20. PBMC+LPS (5 ug/ml)+YY-101 0.001 uM • 21. PBMC+LPS (5 ug/ml)+YDE-011 100 uM • 22. PBMC+LPS (5 ug/ml)+YDE-011 10 uM • 23. PBMC+LPS (5 ug/ml)+YDE-011 1 uM • 24. PBMC+LPS (5 ug/ml)+YDE-011 0.1 uM • 25. PBMC+LPS (5 ug/ml)+YDE-011 0.01 uM • 26. PBMC+LPS (5 ug/ml)+YDE-011 0.001 uM • 27. PBMC+LPS (5 ug/ml)+YDE-043 100 uM • 28. PBMC+LPS (5 ug/ml)+YDE-043 10 uM • 29. PBMC+LPS (5 ug/ml)+YDE-043 1 uM • 30. PBMC+LPS (5 ug/ml)+YDE-043 0.1 uM • 31. PBMC+LPS (5 ug/ml)+YDE-043 0.01 uM • 32. PBMC+LPS (5 ug/ml)+YDE-043 0.001 uM
(§3) Multiplex assay was used to measure 30 cytokines and chemokines. The 1:2, 1:10 and 1:200 diluted cell supernatant and serial dilution of the standard were dispensed into a 96 well plate at 50 ul/well. Then, the pre-mixed cocktail of antibody-coated magnetic beads was dispensed at 50 ul/well and incubated at room temperature for 2 h in a horizontal orbital microplate shaker at 800±500 rpm. The beads were washed using a magnetic device to prevent loss. The biotin-antibody was dispensed in 50 ul of each well and incubated at room temperature for 1 h in a shaker at 800±500 rpm. After washing, streptavidin-PE was added at 50 ul/well and incubated at room temperature for 30 min in a shaker under the same conditions. Finally, after washing, wash buffer (100 ul/well) was added to the plate and incubated in a shaker for 2 min. The Luminex™ 200 setting were set according to the manufacturer's protocol. The data was calculated with a standard five-parameter logistic nonlinear regression analysis of the data (xPonent software 4.2, USA). The levels of cytokine/chemokine are normalized to the live cell counts (1×10^5 cells/mL) and presented as concentrations per mL (pg/mL or ng/mL).

[2] = test system: IL-6; experiment: Example 9 Luminex, LPS hPBMCs: IL-6; assay type: cell-based, human; settings: Bead IL-6
Protocol: as §1, §2, §3

[3] = PBMC + LPS(5 ug/ml) + test article 0.001 uM, Mean
[4] = PBMC + LPS(5 ug/ml) + test article 0.001 uM, individual replicates
[5] = PBMC + LPS(5 ug/ml) + test article 0.01 uM, Mean
[6] = PBMC + LPS(5 ug/ml) + test article 0.01 uM, individual replicates
[7] = PBMC + LPS(5 ug/ml) + test article 0.1 uM, Mean
[8] = PBMC + LPS(5 ug/ml) + test article 0.1 uM, individual replicates
[9] = PBMC + LPS(5 ug/ml) + test article 1 uM, Mean
[10] = PBMC + LPS(5 ug/ml) + test article 1 uM, individual replicates
[11] = PBMC + LPS(5 ug/ml) + test article 10 uM, Mean
[12] = PBMC + LPS(5 ug/ml) + test article 10 uM, individual replicates
[13] = PBMC + LPS(5 ug/ml) + test article 100 uM, Mean
[14] = PBMC + LPS(5 ug/ml) + test article 100 uM, individual replicates
[15] = PBMC + test article 0.01 uM, no LPS, Mean
[16] = PBMC + test article 0.01 uM, no LPS, individual replicates
[17] = PBMC + test article 0.1 uM, no LPS, Mean
[18] = PBMC + test article 0.1 uM, no LPS, individual replicates
[19] = PBMC + test article 1 uM, no LPS, Mean
[20] = PBMC + test article 1 uM, no LPS, individual replicates
[21] = PBMC + test article 10 uM, no LPS, Mean
[22] = PBMC + test article 10 uM, no LPS, individual replicates
[23] = PBMC + test article 100 uM, no LPS, Mean
[24] = PBMC + test article 100 uM, no LPS, individual replicates
[25] = PBMC + LPS(5 ug/ml), 0.001 uM, Mean
[26] = PBMC + LPS(5 ug/ml), 0.001 uM, single replicates
[27] = PBMC + LPS(5 ug/ml), 0.01 uM, Mean
[28] = PBMC + LPS(5 ug/ml), 0.01 uM, single replicates
[29] = PBMC + LPS(5 ug/ml), 0.1 uM, Mean
[30] = PBMC + LPS(5 ug/ml), 0.1 uM, single replicates
[31] = PBMC + LPS(5 ug/ml), 1 uM, Mean
[32] = PBMC + LPS(5 ug/ml), 1 uM, single replicates
[33] = PBMC + LPS(5 ug/ml), 10 uM, Mean
[34] = PBMC + LPS(5 ug/ml), 10 uM, single replicates
[35] = PBMC + LPS(5 ug/ml), 100 uM, Mean
[36] = PBMC + LPS(5 ug/ml), 100 uM, single replicates
[37] = PBMC without LPS, 0.01 uM, Mean
[38] = PBMC without LPS, 0.01 uM, single replicates
[39] = PBMC without LPS, 0.1 uM, single replicates
[40] = PBMC without LPS, 1 uM, single replicates
[41] = PBMC without LPS, 10 uM, single replicates
[42] = PBMC without LPS, 100 uM, single replicates

## CC(C)C[C@H](NC(=O)CNC(=O)[C@H](CC(=O)O)NC(=O)[C@H](CCC(N)=O)NC(=O)CNC(=O)[C@@H]1C[C@@H](O)CN1)C(=O)N[C@@H](C)C(=O)NCC(=O)N1CCC[C@H]1C(=O)N[C@@H](CCCCN)C(=O)O [YY-101] (H-[Hyp]GQDGLAGPK-OH; N-terminus and C-terminus assumed)
[1]; [3]
  Concentration: 3936.7 pg/mL
  conc/live cell: 612.8 pg/10^5
[1]; [4]
  Concentration: 3765.3 pg/mL and 3838.5 pg/mL and 4206.2 pg/mL
  conc/live cell: 660.6 pg/10^5 and 540.6 pg/10^5 and 637.3 pg/10^5
[1]; [5]
  Concentration: 4029.1 pg/mL
  conc/live cell: 653.6 pg/10^5
[1]; [6]
  Concentration: 4143.7 pg/mL and 4045.9 pg/mL and 3897.7 pg/mL
  conc/live cell: 647.5 pg/10^5 and 674.3 pg/10^5 and 639.0 pg/10^5
[1]; [7]
  Concentration: 3583.8 pg/mL
  conc/live cell: 616.4 pg/10^5
[1]; [8]
  Concentration: 3601.3 pg/mL and 3708.0 pg/mL and 3442.0 pg/mL
  conc/live cell: 580.9 pg/10^5 and 713.1 pg/10^5 and 555.2 pg/10^5
[1]; [9]
  Concentration: 4023.9 pg/mL
  conc/live cell: 619.0 pg/10^5
[1]; [10]
  Concentration: 3902.2 pg/mL and 3911.6 pg/mL and 4257.8 pg/mL
  conc/live cell: 619.4 pg/10^5 and 550.9 pg/10^5 and 686.7 pg/10^5
[1]; [11]
  Concentration: 3459.8 pg/mL
  conc/live cell: 524.3 pg/10^5
[1]; [12]
  Concentration: 3308.6 pg/mL and 3697.4 pg/mL and 3373.4 pg/mL
  conc/live cell: 551.4 pg/10^5 and 577.7 pg/10^5 and 443.9 pg/10^5
[1]; [13]
  Concentration: 598.6 pg/mL
  conc/live cell: 104.2 pg/10^5
[1]; [14]
  Concentration: 541.0 pg/mL and 629.1 pg/mL and 625.5 pg/mL
  conc/live cell: 85.9 pg/10^5 and 101.5 pg/10^5 and 125.1 pg/10^5
[1]; [15]
  Concentration: 3382.2 pg/mL
  conc/live cell: 692.4 pg/10^5
[1]; [16]
  Concentration: 1522.2 pg/mL and 5242.2 pg/mL
  conc/live cell: 292.7 pg/10^5 and 1092.1 pg/10^5
[1]; [17]
  Concentration: 2047.1 pg/mL
  conc/live cell: 389.7 pg/10^5
[1]; [18]
  Concentration: 1338.6 pg/mL and 2755.6 pg/mL
  conc/live cell: 304.2 pg/10^5 and 475.1 pg/10^5
[1]; [19]
  Concentration: 1790.1 pg/mL
  conc/live cell: 325.5 pg/10^5
[1]; [20]
  Concentration: 1471.3 pg/mL and 2108.8 pg/mL
  conc/live cell: 267.5 pg/10^5 and 383.4 pg/10^5
[1]; [21]
  Concentration: 7729.5 pg/mL
  conc/live cell: 1218.8 pg/10^5
[1]; [22]
  Concentration: 12584.2 pg/mL and 2874.9 pg/mL
  conc/live cell: 1966.3 pg/10^5 and 471.3 pg/10^5
[1]; [23]
  Concentration: 1095.4 pg/mL
  conc/live cell: 165.8 pg/10^5
[1]; [24]
  Concentration: 1394.1 pg/mL and 796.7 pg/mL
  conc/live cell: 217.8 pg/10^5 and 113.8 pg/10^5
[2]; [25]
  Concentration: 12498.5 pg/mL
  MFI: 355.4
  conc/live cell: 1952.7 pg/10^5
[2]; [26]
  Concentration: 13037.8 pg/mL and 12646.1 pg/mL and 11811.7 pg/mL
  MFI: 371.3 and 359.8 and 335.3
  conc/live cell: 2287.3 pg/10^5 and 1781.1 pg/10^5 and 1789.6 pg/10^5
[2]; [27]
  Concentration: 13304.7 pg/mL
  MFI: 379.1
  conc/live cell: 2159.4 pg/10^5
[2]; [28]
  Concentration: 13276.3 pg/mL and 13531.9 pg/mL and 13106.0 pg/mL
  MFI: 378.3 and 385.8 and 373.3
  conc/live cell: 2074.4 pg/10^5 and 2255.3 pg/10^5 and 2148.5 pg/10^5
[2]; [29]
  Concentration: 12816.4 pg/mL
  MFI: 364.8
  conc/live cell: 2203.2 pg/10^5
[2]; [30]
  Concentration: 12441.7 pg/mL and 13157.1 pg/mL and 12850.5 pg/mL
  MFI: 353.8 and 374.8 and 365.8
  conc/live cell: 2006.7 pg/10^5 and 2530.2 pg/10^5 and 2072.7 pg/10^5
[2]; [31]
  Concentration: 13020.8 pg/mL
  MFI: 370.8
  conc/live cell: 2001.1 pg/10^5
[2]; [32]
  Concentration: 13242.2 pg/mL and 12867.5 pg/mL and 12952.6 pg/mL
  MFI: 377.3 and 366.3 and 368.8
  conc/live cell: 2101.9 pg/10^5 and 1812.3 pg/10^5 and 2089.1 pg/10^5
[2]; [33]
  Concentration: 14020.8 pg/mL
  MFI: 400.1
  conc/live cell: 2132.1 pg/10^5
[2]; [34]
  Concentration: 13975.0 pg/mL and 15049.6 pg/mL and 13037.8 pg/mL
  MFI: 398.8 and 430.3 and 371.3
  conc/live cell: 2329.2 pg/10^5 and 2351.5 pg/10^5 and 1715.5 pg/10^5
[2]; [35]
  Concentration: 15533.5 pg/mL
  MFI: 444.4
  conc/live cell: 2685.2 pg/10^5
[2]; [36]
  Concentration: 16142.7 pg/mL and 15459.3 pg/mL and 14998.4 pg/mL
  MFI: 462.3 and 442.3 and 428.8
  conc/live cell: 2562.3 pg/10^5 and 2493.4 pg/10^5 and 2999.7 pg/10^5
[2]; [37]
  MFI: 3.3
  conc/live cell: 0.0 pg/10^5
[2]; [38]
  MFI: 4.3 and 2.3
  conc/live cell: 0.0 pg/10^5
[2]; PBMC without LPS, 0.1 uM, Mean
  MFI: 1.3
  conc/live cell: 0.0 pg/10^5
[2]; [39]
  MFI: 1.3
  conc/live cell: 0.0 pg/10^5
[2]; PBMC without LPS, 1 uM, Mean
  MFI: 1.8
  conc/live cell: 0.0 pg/10^5
[2]; [40]
  MFI: 2.3 and 1.3
  conc/live cell: 0.0 pg/10^5
[2]; PBMC without LPS, 10 uM, Mean
  Concentration: 880.7 pg/mL
  MFI: 15.3
  conc/live cell: 68.8 pg/10^5
[2]; [41]
  Concentration: 880.7 pg/mL
  MFI: 27.3 and 3.3
  conc/live cell: 137.6 pg/10^5 and 0.0 pg/10^5
[2]; PBMC without LPS, 100 uM, Mean
  Concentration: 524.7 pg/mL
  MFI: 15.8
  conc/live cell: 41.0 pg/10^5
[2]; [42]
  Concentration: 524.7 pg/mL
  MFI: 19.8 and 11.8
  conc/live cell: 82.0 pg/10^5 and 0.0 pg/10^5
